Source: ChEMBL document CHEMBL5352402, “Discovery of novel non-nucleoside inhibitors with high potency and selectivity for DNA methyltransferase 3A” (Eur J Med Chem, 2022)
Activity calls are given as the source filed them. The rule behind the calls is not given here.

Experiments:
THP-1 [1] = assay: Antiproliferative activity against human THP-1 cells assessed as inhibition of cell proliferation at 100 uM incubated for 24 to 72 hrs by MTT assay; format: functional, cell-based; details: time 24-72 hrs, TDE = time-dependent effect
[2] = Cytotoxicity activity against human PBMC cells assessed as inhibition of cell proliferation incubated for 72 hrs by MTT assay; format: toxicity, cell-based
K562 [3] = assay: Antiproliferative activity against human K562 cells assessed as inhibition of cell proliferation at 100 uM incubated for 24 to 72 hrs by MTT assay; format: functional, cell-based; details: time 24-72 hrs, TDE = time-dependent effect
A549 [4] = assay: cells; details: Homo sapiens, A549, 72 h
Description: Antiproliferative activity against human A549 cells assessed as inhibition of cell proliferation incubated for 72 hrs by MTT assay

THP-1 [5] = assay: Antiproliferative activity against human THP-1 cells assessed as inhibition of cell proliferation at 0.1 to 100 uM incubated upto 72 hrs by MTT assay; format: functional, cell-based; details: dose 0.1-100 µM
K562 [6] = assay: Antiproliferative activity against human K562 cells assessed as inhibition of cell proliferation at 0.1 to 100 uM incubated upto 72 hrs by MTT assay; format: functional, cell-based; details: dose 0.1-100 µM
[7] = biological target: T1, Histone-lysine N-methyltransferase EHMT2 (Homo sapiens, UniProt Q96KQ7); assay: Inhibition of N-terminal GST-tagged human G9a expressed in baculovirus infected Sf9 cells using biotinylated histone H3 peptide as substrate preincubated for 15 mins followed by substrate addition in presence of SAM and measured after 60 mins by AlphaLISA assay
T1 sequence (Q96KQ7 whole entry): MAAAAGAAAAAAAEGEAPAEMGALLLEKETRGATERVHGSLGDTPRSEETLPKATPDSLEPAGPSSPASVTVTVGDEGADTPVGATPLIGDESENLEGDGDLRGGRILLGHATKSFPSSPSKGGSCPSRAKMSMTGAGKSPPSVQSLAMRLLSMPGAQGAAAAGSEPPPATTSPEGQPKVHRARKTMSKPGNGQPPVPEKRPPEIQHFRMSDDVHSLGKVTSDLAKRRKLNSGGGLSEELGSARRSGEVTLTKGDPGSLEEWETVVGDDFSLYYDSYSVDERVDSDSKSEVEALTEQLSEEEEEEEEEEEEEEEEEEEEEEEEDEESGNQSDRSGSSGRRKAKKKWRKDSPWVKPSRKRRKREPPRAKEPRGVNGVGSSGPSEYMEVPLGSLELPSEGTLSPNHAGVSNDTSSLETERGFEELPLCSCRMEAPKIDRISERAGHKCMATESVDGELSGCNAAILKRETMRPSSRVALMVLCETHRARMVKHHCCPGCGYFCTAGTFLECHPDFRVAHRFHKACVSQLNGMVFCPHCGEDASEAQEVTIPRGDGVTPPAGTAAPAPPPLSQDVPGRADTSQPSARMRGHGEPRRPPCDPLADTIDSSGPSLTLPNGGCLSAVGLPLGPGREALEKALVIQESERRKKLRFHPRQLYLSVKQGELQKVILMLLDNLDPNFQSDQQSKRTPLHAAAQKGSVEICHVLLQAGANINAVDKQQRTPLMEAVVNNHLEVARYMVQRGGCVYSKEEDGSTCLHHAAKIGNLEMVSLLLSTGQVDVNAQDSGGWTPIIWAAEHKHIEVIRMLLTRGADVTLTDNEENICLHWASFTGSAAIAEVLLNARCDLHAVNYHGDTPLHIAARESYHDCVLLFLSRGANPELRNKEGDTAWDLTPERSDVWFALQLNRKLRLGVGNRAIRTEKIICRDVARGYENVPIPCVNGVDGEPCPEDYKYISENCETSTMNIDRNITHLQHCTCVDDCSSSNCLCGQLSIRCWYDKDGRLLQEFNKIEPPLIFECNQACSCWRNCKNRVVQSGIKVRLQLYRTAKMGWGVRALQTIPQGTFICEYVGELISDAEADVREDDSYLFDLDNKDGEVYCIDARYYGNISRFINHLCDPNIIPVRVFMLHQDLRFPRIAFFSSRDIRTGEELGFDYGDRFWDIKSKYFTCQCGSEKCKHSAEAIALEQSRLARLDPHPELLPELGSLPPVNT

U-937 [8] = assay: Antiproliferative activity against human U-937 cells assessed as inhibition of cell proliferation at 0.1 to 100 uM incubated upto 72 hrs by MTT assay; format: functional, cell-based; details: dose 0.1-100 µM
[9] = biological target: DNA (cytosine-5)-methyltransferase 3A (Homo sapiens) (UniProt Q9Y6K1); assay: Inhibition of DNMT3A in human HCT-116 cells assessed as increase in p53 protein level at 1 uM incubated for 72 hrs by Western blot analysis; format: cell-based
Chain of DNA (cytosine-5)-methyltransferase 3A (Homo sapiens) (Q9Y6K1 whole entry, looked up, the tested form may be a part): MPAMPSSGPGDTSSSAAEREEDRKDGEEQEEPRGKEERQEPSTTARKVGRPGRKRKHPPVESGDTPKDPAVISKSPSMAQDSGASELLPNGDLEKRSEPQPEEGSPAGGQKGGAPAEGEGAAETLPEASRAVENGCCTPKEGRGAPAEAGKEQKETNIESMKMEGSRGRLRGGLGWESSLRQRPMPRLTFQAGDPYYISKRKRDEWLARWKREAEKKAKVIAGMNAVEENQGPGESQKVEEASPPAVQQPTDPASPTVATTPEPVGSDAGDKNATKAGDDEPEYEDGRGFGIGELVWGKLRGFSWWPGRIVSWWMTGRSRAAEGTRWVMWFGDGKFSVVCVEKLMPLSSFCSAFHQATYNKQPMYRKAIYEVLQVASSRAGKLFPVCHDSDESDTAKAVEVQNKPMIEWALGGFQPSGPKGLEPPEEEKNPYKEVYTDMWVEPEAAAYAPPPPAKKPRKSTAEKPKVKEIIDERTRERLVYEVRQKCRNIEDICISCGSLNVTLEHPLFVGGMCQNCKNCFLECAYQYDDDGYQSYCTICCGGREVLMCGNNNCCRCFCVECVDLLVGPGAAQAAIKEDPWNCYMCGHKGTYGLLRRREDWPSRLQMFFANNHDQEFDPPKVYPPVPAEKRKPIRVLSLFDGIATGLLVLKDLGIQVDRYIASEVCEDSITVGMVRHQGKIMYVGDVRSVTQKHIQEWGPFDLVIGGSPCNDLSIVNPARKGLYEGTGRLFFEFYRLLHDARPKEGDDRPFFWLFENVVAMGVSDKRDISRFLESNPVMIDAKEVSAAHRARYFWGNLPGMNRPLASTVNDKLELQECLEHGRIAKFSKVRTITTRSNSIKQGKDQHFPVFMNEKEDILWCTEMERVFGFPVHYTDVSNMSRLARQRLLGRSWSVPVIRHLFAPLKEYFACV

[10] = biological target: T2, DNMT3A2/3L complex (Homo sapiens) (UniProt Q9Y6K1+Q9UJW3); assay: (§1) Inhibition of N-terminal His-tagged human DNMT3A (623 to 912 residues)/N-terminal GST-tagged human DNMT3L (160 to 387 residues) co-expressed in baculovirus infected Sf9 cells assessed as DNA methylation using DNA oligonucleotide IDT-01 as substrate at 100 uM preincubated for 15 mins followed by substrate addition in presence of [3H]-SAM and measured after 4 hrs by radioactive methylation assay; details: time 255.0 min
T2 sequence (Q9UJW3 whole entry, looked up, the tested form may be a part): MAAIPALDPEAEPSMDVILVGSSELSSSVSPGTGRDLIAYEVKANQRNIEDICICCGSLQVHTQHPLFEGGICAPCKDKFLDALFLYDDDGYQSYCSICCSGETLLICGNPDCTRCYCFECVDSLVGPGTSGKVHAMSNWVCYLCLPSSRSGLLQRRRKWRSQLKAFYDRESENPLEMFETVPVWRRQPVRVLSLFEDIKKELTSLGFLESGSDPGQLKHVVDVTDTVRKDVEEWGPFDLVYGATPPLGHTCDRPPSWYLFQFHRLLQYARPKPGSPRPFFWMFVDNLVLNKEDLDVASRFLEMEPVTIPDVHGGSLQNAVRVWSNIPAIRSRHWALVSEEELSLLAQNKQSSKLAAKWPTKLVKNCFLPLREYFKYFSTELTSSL
T2 sequence (Q9Y6K1 whole entry, looked up, the tested form may be a part): as the sequence (Q9Y6K1 whole entry, looked up, the tested form may be a part) above

HCT-116 [11] = assay: Antiproliferative activity against human HCT-116 cells assessed as inhibition of cell proliferation at 0.1 to 100 uM incubated upto 72 hrs by MTT assay; format: functional, cell-based; details: dose 0.1-100 µM
THP-1 [12] = assay: Antiproliferative activity against human THP-1 cells assessed as inhibition of cell proliferation incubated for 72 hrs by MTT assay; format: functional, cell-based; details: THP-1, 72 h
DU-145 [13] = assay: Antiproliferative activity against human DU-145 cells assessed as inhibition of cell proliferation incubated for 72 hrs by MTT assay; format: functional, cell-based; details: DU-145, 72 h
HCT-116 [14] = assay: cells; details: Homo sapiens, HCT-116, 72 h
Description: Antiproliferative activity against human HCT-116 cells assessed as inhibition of cell proliferation incubated for 72 hrs by MTT assay

[15] = biological target: DNA (cytosine-5)-methyltransferase 1 (Homo sapiens, UniProt P26358); assay: Inhibition of N-terminal GST-tagged full-length recombinant human DNMT1 assessed as DNA methylation using pdI-pdC DNA as substrate preincubated for 15 mins followed by substrate addition in presence of [3H]-SAM and measured after 150 mins by radioactive methylation assay
Chain of DNA (cytosine-5)-methyltransferase 1 (P26358 whole entry): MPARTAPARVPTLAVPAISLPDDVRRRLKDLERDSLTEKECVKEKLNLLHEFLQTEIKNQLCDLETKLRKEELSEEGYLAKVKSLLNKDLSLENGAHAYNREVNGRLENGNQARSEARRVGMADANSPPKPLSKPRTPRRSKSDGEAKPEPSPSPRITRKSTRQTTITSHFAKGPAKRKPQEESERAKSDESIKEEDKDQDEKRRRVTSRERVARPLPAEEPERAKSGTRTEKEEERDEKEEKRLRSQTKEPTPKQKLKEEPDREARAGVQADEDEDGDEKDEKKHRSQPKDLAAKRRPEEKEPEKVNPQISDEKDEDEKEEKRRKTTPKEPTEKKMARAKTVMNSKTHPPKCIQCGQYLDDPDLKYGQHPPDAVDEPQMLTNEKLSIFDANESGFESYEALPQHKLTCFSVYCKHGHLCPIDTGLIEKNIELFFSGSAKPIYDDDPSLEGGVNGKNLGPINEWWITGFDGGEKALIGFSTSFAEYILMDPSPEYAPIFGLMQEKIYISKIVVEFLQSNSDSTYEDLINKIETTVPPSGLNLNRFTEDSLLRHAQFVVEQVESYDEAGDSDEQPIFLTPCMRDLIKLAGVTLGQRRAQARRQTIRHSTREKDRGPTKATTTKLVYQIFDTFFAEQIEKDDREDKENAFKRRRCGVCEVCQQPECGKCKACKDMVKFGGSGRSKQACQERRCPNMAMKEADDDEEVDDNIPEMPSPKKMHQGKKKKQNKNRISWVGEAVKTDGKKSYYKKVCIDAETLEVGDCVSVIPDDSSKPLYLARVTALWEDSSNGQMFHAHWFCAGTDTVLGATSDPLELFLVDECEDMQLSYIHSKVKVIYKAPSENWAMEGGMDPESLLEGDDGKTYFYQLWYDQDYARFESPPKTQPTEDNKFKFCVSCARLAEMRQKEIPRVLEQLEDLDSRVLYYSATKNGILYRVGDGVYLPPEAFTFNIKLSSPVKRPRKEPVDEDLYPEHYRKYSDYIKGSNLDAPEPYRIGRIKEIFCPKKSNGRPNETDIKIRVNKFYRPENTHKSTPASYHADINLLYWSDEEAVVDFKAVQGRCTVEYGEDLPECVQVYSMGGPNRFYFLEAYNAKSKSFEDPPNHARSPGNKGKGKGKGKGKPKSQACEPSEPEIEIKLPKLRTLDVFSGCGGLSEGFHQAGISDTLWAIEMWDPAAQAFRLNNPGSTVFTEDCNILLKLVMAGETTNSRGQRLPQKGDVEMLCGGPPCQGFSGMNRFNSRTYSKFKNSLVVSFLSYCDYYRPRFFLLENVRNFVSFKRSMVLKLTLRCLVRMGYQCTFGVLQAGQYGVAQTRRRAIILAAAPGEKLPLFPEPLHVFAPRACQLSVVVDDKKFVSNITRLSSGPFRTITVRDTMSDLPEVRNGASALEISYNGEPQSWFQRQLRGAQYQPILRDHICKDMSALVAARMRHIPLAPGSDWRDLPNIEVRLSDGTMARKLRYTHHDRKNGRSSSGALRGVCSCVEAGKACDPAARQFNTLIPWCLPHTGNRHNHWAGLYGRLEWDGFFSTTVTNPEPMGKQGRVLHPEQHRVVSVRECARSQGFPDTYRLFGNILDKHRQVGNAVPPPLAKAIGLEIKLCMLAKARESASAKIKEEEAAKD

HCT-116 [16] = assay: Antiproliferative activity against human HCT-116 cells assessed as inhibition of cell proliferation at 100 uM incubated for 24 to 72 hrs by MTT assay; format: functional, cell-based; details: time 24-72 hrs, TDE = time-dependent effect
K562 [17] = assay: Antiproliferative activity against human K562 cells assessed as inhibition of cell proliferation incubated for 72 hrs by MTT assay; format: functional, cell-based; details: K562, 72 h
U-937 [18] = assay: cells; details: Homo sapiens, U-937, 72 h
Description: Antiproliferative activity against human U-937 cells assessed as inhibition of cell proliferation incubated for 72 hrs by MTT assay

[19] = biological target: DNA (cytosine-5)-methyltransferase 3A (Homo sapiens) (UniProt Q9Y6K1); assay: Inhibition of DNMT3A in human HCT-116 cells assessed as downregulation of DNMT3A protein level at 1 uM incubated for 72 hrs by Western blot analysis; format: cell-based
A549 [20] = assay: Antiproliferative activity against human A549 cells assessed as inhibition of cell proliferation at 0.1 to 100 uM incubated upto 72 hrs by MTT assay; format: functional, cell-based; details: dose 0.1-100 µM
DU-145 [21] = assay: Antiproliferative activity against human DU-145 cells assessed as inhibition of cell proliferation at 100 uM incubated for 24 to 72 hrs by MTT assay; format: functional, cell-based; details: time 24-72 hrs, TDE = time-dependent effect
A549 [22] = assay: Antiproliferative activity against human A549 cells assessed as inhibition of cell proliferation at 100 uM incubated for 24 to 72 hrs by MTT assay; format: functional, cell-based; details: time 24-72 hrs, TDE = time-dependent effect
U-937 [23] = assay: Antiproliferative activity against human U-937 cells assessed as inhibition of cell proliferation at 100 uM incubated for 24 to 72 hrs by MTT assay; format: functional, cell-based; details: time 24-72 hrs, TDE = time-dependent effect
[24] = biological target: T2, DNMT3A2/3L complex (Homo sapiens); assay: as §1, with “10” for “100”; details: time 255.0 min
DU-145 [25] = assay: Antiproliferative activity against human DU-145 cells assessed as inhibition of cell proliferation at 0.1 to 100 uM incubated upto 72 hrs by MTT assay; format: functional, cell-based; details: dose 0.1-100 µM
DNMT3B = DNMT3B (Homo sapiens, UniProt Q9UBC3); assay: as §1, with “DNMT3B (564” for “DNMT3A (623”, “853” for “912”, “substrate” for “substrate at 100 uM”
[26] = biological target: T2, DNMT3A2/3L complex (Homo sapiens); assay: Competitive inhibition of N-terminal His-tagged human DNMT3A (623 to 912 residues)/N-terminal GST-tagged human DNMT3L (160 to 387 residues) co-expressed in baculovirus infected Sf9 cells assessed as DNA methylation using varying concentration of oligonucleotide IDT-01 as substrate preincubated for …; details: time 255.0 min

Which Activity (THP-1 [1]) does the source give for `Cc1oc2ncn(CCN(C)C)c(=O)c2c1C(=O)Nc1ccc(S(N)(=O)=O)nc1` here?
Its Activity is “Tde”.

And the IC50 at 72 h [2]?
Its IC50 at 72 h is 131 µM.

And the Activity (K562 [3])?
Its Activity is “Tde”.

And the IC50 (A549 [4])?
The IC50 was 4.6 µM.

And the Activity (THP-1 [5])?
The Activity was “Dose-Dependent Effect”.

What about the Activity (K562 [6]) of the same molecule?
Its Activity is “Dose-Dependent Effect”.

What about the IC50 [7] of the same molecule?
Its IC50 is over 500 µM.

And the Activity (U-937 [8])?
Its Activity is “Dose-Dependent Effect”.

And the “p53 protein level increase (active/not active)” value [9]?
The value was “Active”.

What about the inhibition [10] of the same molecule?
The inhibition was 81.8%.

What about the Activity (HCT-116 [11]) of the same molecule?
Its Activity is “Dose-Dependent Effect”.

And the IC50 (THP-1 [12])?
Its IC50 is 1800 nM.

And the IC50 (DU-145 [13])?
Its IC50 is 3700 nM.

What about the IC50 (HCT-116 [14]) of the same molecule?
Its IC50 is 500 nM.

What about the IC50 [15] of the same molecule?
Its IC50 is 20.9 µM.

What about the Activity (HCT-116 [16]) of the same molecule?
The Activity was “Tde”.

What about the IC50 (K562 [17]) of the same molecule?
The IC50 was 1600 nM.

What about the IC50 (U-937 [18]) of the same molecule?
The IC50 was 2300 nM.

And the inhibition [19]?
Its inhibition is “Active”.

What about the Activity (A549 [20]) of the same molecule?
The Activity was “Dose-Dependent Effect”.

What about the Activity (DU-145 [21]) of the same molecule?
The Activity was “Tde”.

And the Activity (A549 [22])?
Its Activity is “Tde”.

What about the Activity (U-937 [23]) of the same molecule?
Its Activity is “Tde”.

What about the inhibition [24] of the same molecule?
Its inhibition is 74.7%.

And the Activity (DU-145 [25])?
The Activity was “Dose-Dependent Effect”.

And the IC50 (DNMT3B)?
Its IC50 is 220 µM.

Which Activity (THP-1 [1]) does the source give for `Cc1oc2ncn(CCN3CCCC3)c(=O)c2c1C(=O)Nc1ccc(S(N)(=O)=O)nc1` here?
Its Activity is “Tde”.

And the IC50 at 72 h [2]?
Its IC50 at 72 h is 91 µM.

What about the Activity (K562 [3]) of the same molecule?
Its Activity is “Tde”.

And the IC50 (A549 [4])?
Its IC50 is 2.1 µM.

And the Activity (THP-1 [5])?
The Activity was “Dose-Dependent Effect”.

What about the Activity (K562 [6]) of the same molecule?
The Activity was “Dose-Dependent Effect”.

What about the IC50 [7] of the same molecule?
Its IC50 is over 500 µM.

What about the Activity (U-937 [8]) of the same molecule?
Its Activity is “Dose-Dependent Effect”.

And the “p53 protein level increase (active/not active)” value [9]?
The value was “Active”.

What about the inhibition [10] of the same molecule?
Its inhibition is 93.1%.

And the Activity (HCT-116 [11])?
Its Activity is “Dose-Dependent Effect”.

What about the IC50 (THP-1 [12]) of the same molecule?
The IC50 was 700 nM.

And the IC50 (DU-145 [13])?
The IC50 was 1700 nM.

And the IC50 (HCT-116 [14])?
The IC50 was 300 nM.

And the IC50 [15]?
The IC50 was 13 µM.

What about the Activity (HCT-116 [16]) of the same molecule?
Its Activity is “Tde”.

And the IC50 (K562 [17])?
The IC50 was 500 nM.

What about the IC50 (U-937 [18]) of the same molecule?
Its IC50 is 700 nM.

What about the inhibition [19] of the same molecule?
The inhibition was “Active”.

What about the Activity (A549 [20]) of the same molecule?
Its Activity is “Dose-Dependent Effect”.

What about the Activity (DU-145 [21]) of the same molecule?
Its Activity is “Tde”.

What about the Activity (A549 [22]) of the same molecule?
The Activity was “Tde”.

What about the Activity (U-937 [23]) of the same molecule?
The Activity was “Tde”.

What about the inhibition [24] of the same molecule?
Its inhibition is 83.8%.

What about the Activity (DU-145 [25]) of the same molecule?
The Activity was “Dose-Dependent Effect”.

What about the inhibition [26] of the same molecule?
Its inhibition is “Active”.

And the IC50 (DNMT3B)?
The IC50 was 105 µM.
